Measured values reported in US11208400B2, “Substituted 6-(1H-pyrazol-1-yl)pyrimidin-4-amine derivatives and uses thereof” (Bayer Aktiengesellschaft, priority 2016, dated 2021).

These compounds were tested against T1, human Npt2a (Homo sapiens, UniProt Q06495) (assay: Npt2a activity cell based assay, membrane potential dye, CHO T-REx hNpt2a cells). Conditions: doxycycline-induced, depolarization by sodium phosphate influx, average or median values if tested more than once.
T1 construct: expressed in transfected cells
T1 sequence (Q06495 1-639): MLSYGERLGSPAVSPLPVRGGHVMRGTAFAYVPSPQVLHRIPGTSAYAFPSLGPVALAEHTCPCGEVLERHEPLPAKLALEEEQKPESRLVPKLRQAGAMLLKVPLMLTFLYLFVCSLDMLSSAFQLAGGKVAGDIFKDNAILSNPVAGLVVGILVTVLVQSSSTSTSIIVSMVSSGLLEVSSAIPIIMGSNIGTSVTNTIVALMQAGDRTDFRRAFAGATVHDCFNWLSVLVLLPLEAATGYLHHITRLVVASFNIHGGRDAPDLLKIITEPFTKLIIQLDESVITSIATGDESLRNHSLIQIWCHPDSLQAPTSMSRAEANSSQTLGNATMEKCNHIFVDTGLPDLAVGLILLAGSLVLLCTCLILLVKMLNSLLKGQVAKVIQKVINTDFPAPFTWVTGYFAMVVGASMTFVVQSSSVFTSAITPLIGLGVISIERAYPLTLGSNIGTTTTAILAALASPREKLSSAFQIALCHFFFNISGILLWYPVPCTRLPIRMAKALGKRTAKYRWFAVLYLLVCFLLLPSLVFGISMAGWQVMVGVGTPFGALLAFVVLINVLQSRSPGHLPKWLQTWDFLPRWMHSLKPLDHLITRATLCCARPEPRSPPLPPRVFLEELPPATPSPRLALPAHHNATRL
Summary of the method: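 Cells were doxycycline-induced CHO T-REx hNpt2a, dye-loaded and pretreated 5 min at RT with 1 nM–50 μM compound in Na-free pH 7.4 buffer. IC50 was fit to the post/pre-trigger fluorescence ratio.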

**Q.** For `Cc1c(-c2ccc(C#N)cc2)nn(CC2CC2)c1Nc1cc(-n2nc(C)c3cnccc32)ncn1` [Example 233, 4-[1-(cyclopropylmethyl)-4-methyl-5-{[6-(3-methyl-1H-pyrazolo[4,3-c]pyridin-1-yl)pyrimidin-4-yl]amino}-1H-pyrazol-3-yl]benzonitrile], which IC50 is on record?
**A.** The IC50 was 29 nM.

**Q.** `CC(=O)Oc1c(C)nn(-c2cc(Nc3c(C)c(-c4ccc(F)cc4)nn3CC3CC3)ncn2)c1C` [Example 497, 1-(6-{[1-(cyclopropylmethyl)-3-(4-fluorophenyl)-4-methyl-1H-pyrazol-5-yl]amino}pyrimidin-4-yl)-3,5-dimethyl-1H-pyrazol-4-yl acetate] was tested. Which IC50 did it give?
**A.** The IC50 was 3 nM.

**Q.** How did the IC50 turn out when `COCCn1nc(-c2ccc(F)cc2)c(C)c1Nc1cc(-n2nc(C)cc2C)ncn1` [Example 525, 6-(3,5-dimethyl-1H-pyrazol-1-yl)-N-[3-(4-fluorophenyl)-1-(2-methoxyethyl)-4-methyl-1H-pyrazol-5-yl]pyrimidin-4-amine] was run?
**A.** Its IC50 is 4 nM.

**Q.** For `CCOC(=O)c1c(C)nn(-c2cc(Nc3nn(C)c(-c4ccccc4)c3Cl)ncn2)c1C` [Example 81, ethyl 1-{6-[(4-chloro-1-methyl-5-phenyl-1H-pyrazol-3-yl)amino]pyrimidin-4-yl}-3,5-dimethyl-1H-pyrazole-4-carboxylate], which IC50 is on record?
**A.** Its IC50 is 11 nM.

**Q.** Which IC50 does the source give for `Cc1c(-c2ccc(F)cc2)nn(CC2CC2)c1Nc1cc(-n2ncc3c2CN(C(=O)OC(C)(C)C)C3)ncn1` [Example 431, tert-butyl 1-(6-{[1-(cyclopropylmethyl)-3-(4-fluorophenyl)-4-methyl-1H-pyrazol-5-yl]amino}pyrimidin-4-yl)-4,6-dihydropyrrolo[3,4-c]pyrazole-5(1H)-carboxylate] here?
**A.** The IC50 was 69 nM.

**Q.** For `Cc1cc(C)n(-c2cc(Nc3c(Cl)c(-c4ccc(F)cc4F)nn3C)ncn2)n1` [Example 50, N-[4-chloro-3-(2,4-difluorophenyl)-1-methyl-1H-pyrazol-5-yl]-6-(3,5-dimethyl-1H-pyrazol-1-yl)pyrimidin-4-amine], which IC50 is on record?
**A.** Its IC50 is 160 nM.

**Q.** For `Cc1nn(-c2cc(Nc3nn(C)c(-c4ccc(F)cc4)c3OC(F)F)ncn2)c(C)c1C(F)(F)F` [Example 469, N-[4-(difluoromethoxy)-5-(4-fluorophenyl)-1-methyl-1H-pyrazol-3-yl]-6-[3,5-dimethyl-4-(trifluoromethyl)-1H-pyrazol-1-yl]pyrimidin-4-amine], which IC50 is on record?
**A.** The IC50 was 5 nM.

**Q.** With `CCOC(=O)c1c(C)nn(-c2cc(Nc3c(C)c(-c4ccc(C(F)F)cc4)nn3CCOC)ncn2)c1C` [Example 546, ethyl 1-[6-({3-[4-(difluoromethyl)phenyl]-1-(2-methoxyethyl)-4-methyl-1H-pyrazol-5-yl}amino)pyrimidin-4-yl]-3,5-dimethyl-1H-pyrazole-4-carboxylate] as the compound, how does the IC50 read?
**A.** Its IC50 is 14 nM.

**Q.** How did the IC50 turn out when `Cc1nn(-c2cc(Nc3[nH]nc(-c4ccc(F)cc4F)c3Cl)ncn2)c(C)c1Cl` [Example 3, N-[4-chloro-3-(2,4-difluorophenyl)-1H-pyrazol-5-yl]-6-(4-chloro-3,5-dimethyl-1H-pyrazol-1-yl)pyrimidin-4-amine] was run?
**A.** The IC50 was 13 nM.

**Q.** How did the IC50 turn out when `Cc1nn(-c2cc(Nc3nn(CC(F)F)c(-c4ccc(F)cc4)c3Cl)ncn2)c(C)c1Cl` [Example 130, N-[4-chloro-1-(2,2-difluoroethyl)-5-(4-fluorophenyl)-1H-pyrazol-3-yl]-6-(4-chloro-3,5-dimethyl-1H-pyrazol-1-yl)pyrimidin-4-amine] was run?
**A.** The IC50 was 28 nM.

**Q.** With `CCc1c(Nc2cc(-n3nc(C)c(Cl)c3C)ncn2)n[nH]c1-c1ccc(F)cc1` [Example 5, 6-(4-chloro-3,5-dimethyl-1H-pyrazol-1-yl)-N-[4-ethyl-5-(4-fluorophenyl)-1H-pyrazol-3-yl]pyrimidin-4-amine] as the compound, how does the IC50 read?
**A.** The IC50 was 27.5 nM.

**Q.** Which IC50 does the source give for `Cc1nn(-c2cc(Nc3c(C)c(-c4ccc(F)cc4)nn3CC3CC3)ncn2)c(C)c1C(O)C(F)F` (racemic) [Example 392, (±)-1-[1-(6-{[1-(cyclopropylmethyl)-3-(4-fluorophenyl)-4-methyl-1H-pyrazol-5-yl]amino}pyrimidin-4-yl)-3,5-dimethyl-1H-pyrazol-4-yl]-2,2-difluoroethanol] here?
**A.** The IC50 was 18 nM.

**Q.** `Cc1nn(-c2cc(Nc3nn(C)c(-c4ccc(F)cc4)c3C)ncn2)c(C)c1C(C)(C)O` [Example 109, 2-[1-(6-{[5-(4-fluorophenyl)-1,4-dimethyl-1H-pyrazol-3-yl]amino}pyrimidin-4-yl)-3 5-dimethyl-1H-pyrazol-4-yl]propan-2-ol] was tested. Which IC50 did it give?
**A.** Its IC50 is 50.3 nM.

**Q.** For `Cc1nn(-c2cc(Nc3nn(C)c(-c4ccc(C#N)cc4)c3C)ncn2)c(C)c1Cl` [Example 196, 4-(3-{[6-(4-chloro-3,5-dimethyl-1H-pyrazol-1-yl)pyrimidin-4-yl]amino}-1,4-dimethyl-1H-pyrazol-5-yl)benzonitrile], which IC50 is on record?
**A.** Its IC50 is 2 nM.

**Q.** For `Cc1nn(-c2cc(Nc3c(C)c(-c4ccc(F)cc4)nn3CC3CC3)ncn2)c2c1C(C)(O)CC2` (racemic) [Example 283, (±)-1-(6-{[1-(cyclopropylmethyl)-3-(4-fluorophenyl)-4-methyl-1H-pyrazol-5-yl]amino}pyrimidin-4-yl)-3,4-dimethyl-1,4,5,6-tetrahydrocyclopenta[c]pyrazol-4-ol (Racemate)], which IC50 is on record?
**A.** The IC50 was 21 nM.

**Q.** How did the IC50 turn out when `CCc1c(-c2ccc(F)cc2)nn(CC(F)F)c1Nc1cc(-n2nc(C)c(Cl)c2C(F)F)ncn1` [Example 179, 6-[4-chloro-5-(difluoromethyl)-3-methyl-1H-pyrazol-1-yl]-N-[1-(2,2-difluoroethyl)-4-ethyl-3-(4-fluorophenyl)-1H-pyrazol-5-yl]pyrimidin-4-amine] was run?
**A.** Its IC50 is 170 nM.

**Q.** With `CCOC(=O)c1c(Cl)c(C)nn1-c1cc(Nc2c(Cl)c(-c3ccc(F)cc3)nn2C)ncn1` [Example 448, ethyl 4-chloro-1-(6-{[4-chloro-3-(4-fluorophenyl)-1-methyl-1H-pyrazol-5-yl]amino}pyrimidin-4-yl)-3-methyl-1H-pyrazole-5-carboxylate] as the compound, how does the IC50 read?
**A.** The IC50 was 440 nM.

**Q.** How did the IC50 turn out when `Cc1nn(-c2cc(Nc3c(C)c(-c4ccc(F)cc4)nn3CC3CC3)ncn2)c(C)c1O` [Example 429, 1-(6-{[1-(cyclopropylmethyl)-3-(4-fluorophenyl)-4-methyl-1H-pyrazol-5-yl]amino}pyrimidin-4-yl)-3,5-dimethyl-1H-pyrazol-4-ol] was run?
**A.** The IC50 was 17 nM.

**Q.** Which IC50 does the source give for `CCc1c(Nc2cc(-n3nc(C)c(C4(O)COC4)c3C)ncn2)nn(C)c1-c1ccc(F)cc1` [Example 220, 3-[1-(6-{[4-ethyl-5-(4-fluorophenyl)-1-methyl-1H-pyrazol-3-yl]amino}pyrimidin-4-yl)-3,5-dimethyl-1H-pyrazol-4-yl]oxetan-3-ol] here?
**A.** Its IC50 is 320 nM.

**Q.** With `COCCn1nc(-c2ccc(C#N)cc2)c(C)c1Nc1cc(-n2nc(C)cc2C(F)F)ncn1` [Example 554, 4-[5-({6-[5-(difluoromethyl)-3-methyl-1H-pyrazol-1-yl]pyrimidin-4-yl}amino)-1-(2-methoxyethyl)-4-methyl-1H-pyrazol-3-yl]benzonitrile] as the compound, how does the IC50 read?
**A.** Its IC50 is 1.9 nM.

**Q.** With `Cc1nn(-c2cc(Nc3c(C)c(-c4ccc(C#N)cc4)nn3C)ncn2)c(C)c1C(F)(F)F` [Example 547, 4-[5-({6-[3,5-dimethyl-4-(trifluoromethyl)-1H-pyrazol-1-yl]pyrimidin-4-yl}amino)-1,4-dimethyl-1H-pyrazol-3-yl]benzonitrile] as the compound, how does the IC50 read?
**A.** The IC50 was 29 nM.

**Q.** For `Cc1nn(-c2cc(Nc3c(C)c(-c4ccc(C#N)cc4)nn3C)ncn2)c(C(F)F)c1Cl` [Example 241, 4-[5-({6-[4-chloro-5-(difluoromethyl)-3-methyl-1H-pyrazol-1-yl]pyrimidin-4-yl}amino)-1,4-dimethyl-1H-pyrazol-3-yl]benzonitrile], which IC50 is on record?
**A.** The IC50 was 7 nM.

**Q.** How did the IC50 turn out when `CCc1c(-c2ccc(F)cc2)nn(CC2CC2)c1Nc1cc(-n2nc(C)c(C(=O)OC(C)(C)C)c2C(F)F)ncn1` [Example 193, tert-butyl 1-(6-{[1-(cyclopropylmethyl)-4-ethyl-3-(4-fluorophenyl)-1H-pyrazol-5-yl]amino}pyrimidin-4-yl)-5-(difluoromethyl)-3-methyl-1H-pyrazole-4-carboxylate] was run?
**A.** Its IC50 is 51 nM.

**Q.** How did the IC50 turn out when `Cc1c(-c2ccc(F)cc2)nn(CC2CC2)c1Nc1cc(-n2nc3c(c2C)C(=O)CC3)ncn1` [Example 395, 2-(6-{[1-(cyclopropylmethyl)-3-(4-fluorophenyl)-4-methyl-1H-pyrazol-5-yl]amino}pyrimidin-4-yl)-3-methyl-5,6-dihydrocyclopenta[c]pyrazol-4(2H)-one] was run?
**A.** Its IC50 is 19 nM.

**Q.** With `Cc1nn(-c2cc(Nc3nn(C)c(-c4ccc(F)cc4)c3Cl)ncn2)c(C)c1Cl` [Example 89, 6-(4-chloro-3,5-dimethyl-1H-pyrazol-1-yl)-N-[4-chloro-5-(4-fluorophenyl)-1-methyl-1H-pyrazol-3-yl]pyrimidin-4-amine] as the compound, how does the IC50 read?
**A.** Its IC50 is 4.8 nM.

**Q.** How did the IC50 turn out when `Cc1cc(C(C)(C)O)n(-c2cc(Nc3nn(C)c(-c4ccc(F)cc4)c3C)ncn2)n1` [Example 262, 2-[1-(6-{[5-(4-fluorophenyl)-1,4-dimethyl-1H-pyrazol-3-yl]amino}pyrimidin-4-yl)-3-methyl-1H-pyrazol-5-yl]propan-2-ol] was run?
**A.** Its IC50 is 33 nM.

**Q.** How did the IC50 turn out when `COC(C)c1c(C)nn(-c2cc(Nc3c(C)c(-c4ccc(C#N)cc4)nn3C)ncn2)c1C` (single isomer, unassigned) [Example 339, 4-{5-[(6-{4-[1-methoxyethyl]-3,5-dimethyl-1H-pyrazol-1-yl}pyrimidin-4-yl)amino]-1,4-dimethyl-1H-pyrazol-3-yl}benzonitrile] was run?
**A.** The IC50 was 8 nM.
